Measured values: patent publication US20170000784A1, “Autophagy Inhibitors” (priority 2013, published 2017)
“Also recorded” adds a separate entry of the source. Where two headings read alike, the source gives them in different places.

Tests used:
[1] = system: lysosomes (LAMP1, LysoTracker Red) in U2OS cells; assay: Lysosome analysis by fluorescent microscopy (LAMP1 / LysoTracker Red); type: cell-based; conditions: 3 μM for 3 hours; for LysoTracker Red staining: LysoTracker Red for the final hour
Experimental: To determine deacidification of the lysosome, cells were incubated with LysoTracker Red, a dye that localizes to the lysosome based on the […] of the compartment. If the lysosome is no longer acidic, there is a loss in the amount of LysoTracker Red staining. Lysosomal inhibition was further determined by immunofluorescence of lysosome-associated membrane protein-1 (LAMP1). If the lysosome is inhibited, lysosomal turnover should decrease and an increase in the amount of LAMP1 staining would be apparent. U2OS cells were treated with Example 7 or Example 26 at 3 μM for 3 hours, supplementing LysoTracker Red for the final hour.
Using image analysis software, the mean intensities of both the LAMP1 and LysoTracker Red staining were measured and represent altered intensity level between treatments on intensity plots. Individual points were measured using a line scan on the image analysis software, which measures the intensity across the path of a line at any given point. Not only does the presence of LAMP1 positive membranes increases, but the intensity in LAMP1 staining also increases with Example 7 and Example 26 treatment. The inverse relationship in intensity holds true for LysoTracker Red staining.
U2OS cells were seeded at 5×10^4 cells per well in 5A McCoy's with 10% FBS on number 1.5 coverglass discs in 24-well tissue culture dishes. After 24 hours, cells were treated with 3 μM CQ, QN, VATG-027, or VATG-032 for three hours. An hour prior to fixation, media was supplemented with LysoTracker Red added at 100 nM (Invitrogen, L7528). Cells were washed with 1×PBS, fixed with 3.7% formaldehyde, permeabilized with 0.2% Triton-X 100, and blocked with 3% bovine serum albumin (BSA) in PBS. LAMP1 antibody (Santa Cruz, sc-18821) was added at 1:1000 for 16 hours at 4° C. followed by Alexa-Fluor-488-conjugated anti-mouse IgG (Invitrogen, A11008) 1:5000 for 1 hour at room temperature. Nuclei were stained with Hoechst 33342 (2 μg/mL). Coverglass discs were inverted onto a microscope slide using mounting gel. The microscope slides were imaged using a 60× oil-immersion objective on a Nikon Eclipse Ti fluorescent microscope. Intensity of the red and green channels were visualized using the intensity plot on the Nikon NIS Elements software (FIG. 13B). […] The RGB threshold of only the color […] indicating both LAMP1 and LysoTracker Red positivity was performed and data for analysis. The Mander's co-localization coefficient was produced from the Nikon NIS Elements software.
Next, the inventors sought to confirm the inhibition of lysosomal turnover induced by the compounds of the present invention, for example, those of Formula III, Formula III(a), Formula V, Formula V(a), Formula A, Formula A^1, Formula A^2, Formula A^3, or a pharmaceutically acceptable salt thereof, by evaluating the abundance of endogenous lysosomal protein, LAMP1. In addition, lysosome acidity was assessed by co-staining cells with LysoTracker Red, a dye that localizes to the lysosome based on the low pH. Cells were treated with 3 μM CQ, QN, Example 7, or Example 27 for 3 hours, with LysoTracker Red supplemented for the final hour. Following, cells were fixed and stained with endogenous LAMP1 antibodies and both LAMP1 and LysoTracker Red imaged. […] To quantify this phenotype, the co-localization of LAMP1 and LysoTracker Red was measured using image analysis software. […] In addition, Mander's colocalization coefficient (MCC) values were determined for each treatment (FIG. 13C). Not only does the presence of LAMP1-positive membranes increase, but the intensity of LAMP1 staining also increases with QN, Example 7, and Example 27 treatment (FIG. 13C).

[2] = system: U2OS cells stably expressing tfLC3; type: cell-based; conditions: for autophagy inhibition at 3 μM: FIG. 10B
Experimental: U2OS cells stably expressing tfLC3 were seeded at 50,000 cells per well in 5A McCoy's with 10% FBS on number 1.5 coverglass in 24-well tissue culture dishes. After 24 hours, cells were treated with known autophagy controls rapamycin [100 nM] (Millipore, 553210-10 mg), bafilomycin A1 [100 nM] (AG Scientific, B-1183), AZD-8055 [100 nM](Selleck Chemicals, S1555), and CQ [50 μM] as well as autophagy inhibitors (CQ, QN, Example 7, and Example 27) at doses of 0.1 μM, 0.25 μM, 0.5 μM, 1 μM, 5 μM, 15 μM, 25 μM, and 50 μM for three hours. Cells were washed with 1×PBS, fixed with 3.7% formaldehyde, and nuclei were stained with Hoechst 33342 (2 μg/mL). Coverglass was inverted onto microscope slides using mounting gel. Cells were imaged using a 60× oil-immersion objective on a Nikon Eclipse Ti fluorescent microscope and 10 images at each dose were taken for quantification. Image processing and quantification were completed with the Nikon NIS Elements software. To quantify, images were deconvolved using a 2D blind deconvolution function with one iteration and settings of normal cell thickness and normal noise level. Regions of interest (ROI) were drawn around the edges of each cell. Intensity thresholds were set to include all pixels equal to or greater than the intensity above the mean background fluorescence using the separation feature and restrictions set for puncta size (FIG. 9). Objects within the threshold for each ROI were quantified using an automated object count function and exported for analysis. Although other parameters were also collected, the mean intensity of the objects was averaged between the 10 images of each dose, or approximately 50 cells (FIGS. 9B and 9C). Representative images were chosen for each dose and the lookup table (LUT) brightness' were set based on the mean intensity of the DMSO control (FIGS. 8A and 10A). The mean intensity of each image was divided by the mean intensity of the DMSO control to control for brightness and the LUTs were adjusted by the percent difference to avoid background and for consistent visualization. All other settings (gain, exposure time, and lamp strength) were kept the same across all conditions. […] Mean intensity was further chosen for quantification as it accurately represents both the increase in puncta number and area when the accumulation of autophagosomes partially fuse (FIG. 9C, 9D). Quantification of the red channel (RFP-LC3 puncta) was performed to determine the total autophagic vesicle population (both autophagosomes and autolysosomes).
Autophagy inhibition can be measured by fluorescent microscopy using cells expressing a tandem fluorescent (RFP-GFP) labeled LC3 sensor (tfLC3). Upon autophagosome nucleation, LC3 is localized to the autophagic membrane and the overlapping GFP and RFP fluorescence appears as yellow puncta. After the autophagosome matures, it fuses with the lysosome, forming an autolysosome. The GFP in this LC3 sensor is pH labile and becomes quenched by the acidic environment of the autolysosome. However, the RFP remains stable; therefore, autolysosomes are indicated by red puncta. Accordingly, when autophagy is inhibited at the final stage (completion), the abundance of yellow puncta is expected to increase proportionally to the level of autophagy inhibition.
Cells were then fixed and imaged by fluorescent microscopy.

Row | Compound | LAMP1 staining [1] | LysoTracker Red staining [1] | Potency (EC/ECCQ) [2] | autophagy inhibition at 3 μM [2] | concentration giving a significant increase in mean intensity of autophagic puncta ([2]; U2OS-tfLC3, ten-point dose response, FIG. 8B) [µM] | Effective Concentration (EC) ([2]; concentration with statistically significant increase in puncta number over vehicle control, three hours) [µM] | Potency (EC/ECCQ) ([2]; relative potency score versus chloroquine, greater than one = more potent than CQ) | fold more potent at autophagy inhibition than QN [2]
1 | CCN(CC)CCCC(C)Nc1c2ccc(Cl)cc2nc2ccc(OC)cc12 (stereo not drawn) [Quinacrine, quinacrine, reference compound] | substantial increases | essentially eliminated | ~60 | inhibit autophagy | 0.25 | 0.25 |  | 
2 | CN1CCN(CCNc2c3c(nc4cc(Cl)ccc24)CCCC3)CC1 [Example 27, 6-Chloro-N-(2-(4-methylpiperazin-1-yl)ethyl)-1,2,3,4-tetrahydroacridin-9-amine] | substantial increases | essentially ablated; also recorded: essentially eliminated |  | inhibit autophagy |  |  | 3 | 
3 | COc1ccc2nc3cc(Cl)ccc3c(NCCCCN3CCN(C)CC3)c2c1 [Example 7, 6-Chloro-2-methoxy-N-(4-(4-methylpiperazin-1-yl)butyl)acridin-9-amine] | substantial increases | essentially ablated; also recorded: less intense; also recorded: essentially eliminated | 150 | inhibit autophagy |  |  |  | 2
